Consider 2 compounds from US5747336A, “Cloned human genes for muscarinic acetylcholine receptors and cells lines expressing same” (The United States of America as represented by the …, priority 1994, dated 1998).

In assay [1] the target is T1, human m5 receptor (Hm5) (Homo sapiens, UniProt P08912).
T1 construct: expressed in transfected cells
T1 sequence (P08912 1-532): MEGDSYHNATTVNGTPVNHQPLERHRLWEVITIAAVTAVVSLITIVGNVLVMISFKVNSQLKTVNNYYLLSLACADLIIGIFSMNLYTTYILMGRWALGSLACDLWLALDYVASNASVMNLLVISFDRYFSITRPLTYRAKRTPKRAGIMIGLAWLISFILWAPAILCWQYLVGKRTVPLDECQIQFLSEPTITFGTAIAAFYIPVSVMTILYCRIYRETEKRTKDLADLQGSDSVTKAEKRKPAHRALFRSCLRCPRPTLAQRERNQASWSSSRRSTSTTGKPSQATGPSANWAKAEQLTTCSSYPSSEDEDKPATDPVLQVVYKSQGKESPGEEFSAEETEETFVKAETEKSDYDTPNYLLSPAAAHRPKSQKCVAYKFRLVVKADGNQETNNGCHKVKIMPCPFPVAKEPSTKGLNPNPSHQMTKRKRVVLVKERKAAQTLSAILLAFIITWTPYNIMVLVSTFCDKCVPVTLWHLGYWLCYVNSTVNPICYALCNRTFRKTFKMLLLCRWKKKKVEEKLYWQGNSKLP
Kind of assay: 3H-NMS binding assay (direct and inhibition), membranes of transfected CHO cells, Hm5. The procedure: Cells were seeded into six well plates at a density of 10^5 cells/well in growth medium consisting of Minimum Eagle's, Medium supplemented with 10% fetal calf serum (Gibco) and 1000 U each of penicillin G and streptomycin and 4 mM glutamine (Whitaker M.A Bioproducts). Except for the overnight (10-16 hours) transfection (see below) cells were incubated in a humidified incubator at 37° C. and 5% CO2. […] Cells were transferred to a humidified incubator at 35° C. and 3% CO2 and incubated overnight (10-16 hours). […] At the end of selection, transfected cells were harvested and plated at limiting dilution into 96-well plates.
Transfected cells were grown to confluence, washed and scraped into cold binding buffer and homogenized for 30 seconds in a Tekmar Tissumizer (setting 50). Membranes were pelleted at 14,000 g, rehomogenized and the membrane protein determined using a Biorad Protein assay dye reagent. Membrane concentration was adjusted to 1mg protein/ml and stored frozen at -80° C. prior to use.
All membranes, drugs and radioligands were made up in binding buffer which consisted of 25 mM sodium phosphate (pH 7.4) containing 5 mM magnesium chloride. Assays were conducted in 1 ml total volume. Final membrane protein concentrations were 30 ug/ml (m1), 70 ug/ml (m2), 4 μg/ml (m3), 7 μg/ml (m4), and 3 μg/ml (m5). […] Displaceable binding was assessed in the presence of 1 uM atropine sulphate. Binding was terminated by filtration through a Brandel cell harvester onto Whatman GF/C filters.
Data from two to four experiments were independently fit by nonlinear regression to a single mass-action binding site. […] Note Rm1 is the rat m1 receptor, not the human m1 receptor.

Assay [2] addresses T2, human m2 receptor (Hm2) (Homo sapiens, UniProt P08172).
T2 sequence (P08172 1-466): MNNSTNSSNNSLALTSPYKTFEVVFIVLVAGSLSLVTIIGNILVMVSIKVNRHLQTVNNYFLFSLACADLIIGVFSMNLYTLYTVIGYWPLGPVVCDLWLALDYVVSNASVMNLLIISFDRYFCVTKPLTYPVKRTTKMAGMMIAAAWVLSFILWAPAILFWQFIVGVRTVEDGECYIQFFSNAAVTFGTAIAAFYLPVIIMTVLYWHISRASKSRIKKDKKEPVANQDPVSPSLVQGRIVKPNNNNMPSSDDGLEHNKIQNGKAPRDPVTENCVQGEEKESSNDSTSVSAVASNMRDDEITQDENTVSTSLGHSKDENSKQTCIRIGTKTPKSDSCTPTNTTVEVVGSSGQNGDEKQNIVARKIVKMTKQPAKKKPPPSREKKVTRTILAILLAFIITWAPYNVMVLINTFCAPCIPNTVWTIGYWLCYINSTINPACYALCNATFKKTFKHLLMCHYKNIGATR
Source text: (§1) Data from two to four experiments were independently fit by nonlinear regression to a single mass-action binding site. The average values of the parameters derived from the fits and their standard errors are presented. […] Note Rm1 is the rat m1 receptor, not the human m1 receptor.

The target of assay [3] is T3, rat m1 receptor (Rm1) (Rattus norvegicus, UniProt P08482).
T3 sequence (P08482 1-460): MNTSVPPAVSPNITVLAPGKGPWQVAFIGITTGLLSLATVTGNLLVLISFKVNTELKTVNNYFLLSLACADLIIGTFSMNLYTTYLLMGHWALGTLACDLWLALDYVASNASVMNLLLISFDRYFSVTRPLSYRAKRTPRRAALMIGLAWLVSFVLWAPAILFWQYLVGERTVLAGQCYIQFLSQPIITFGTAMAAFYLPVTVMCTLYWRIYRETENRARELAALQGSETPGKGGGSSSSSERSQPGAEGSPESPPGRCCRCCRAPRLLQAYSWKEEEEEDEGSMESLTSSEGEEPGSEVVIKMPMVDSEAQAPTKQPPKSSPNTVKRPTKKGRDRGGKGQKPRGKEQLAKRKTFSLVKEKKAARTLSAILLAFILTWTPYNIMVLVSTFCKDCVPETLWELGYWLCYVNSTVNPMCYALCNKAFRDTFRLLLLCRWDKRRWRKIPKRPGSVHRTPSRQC
The note with it: inhibition of 3H-NMS binding.
Procedure: (§2) All membranes, drugs and radioligands were made up in binding buffer which consisted of 25 mM sodium phosphate (pH 7.4) containing 5 mM magnesium chloride. Assays were conducted in 1 ml total volume. Final membrane protein concentrations were 30 ug/ml (m1), 70 ug/ml (m2), 4 μg/ml (m3), 7 μg/ml (m4), and 3 μg/ml (m5). […] Displaceable binding was assessed in the presence of 1 uM atropine sulphate. […]

In assay [4] the target is T4, human m3 receptor (Hm3) (Homo sapiens, UniProt P20309).
Procedure: as §2
The target of assay [5] is T5, human m4 receptor (Hm4) (Homo sapiens, UniProt P08173).
T5 sequence (P08173 1-479): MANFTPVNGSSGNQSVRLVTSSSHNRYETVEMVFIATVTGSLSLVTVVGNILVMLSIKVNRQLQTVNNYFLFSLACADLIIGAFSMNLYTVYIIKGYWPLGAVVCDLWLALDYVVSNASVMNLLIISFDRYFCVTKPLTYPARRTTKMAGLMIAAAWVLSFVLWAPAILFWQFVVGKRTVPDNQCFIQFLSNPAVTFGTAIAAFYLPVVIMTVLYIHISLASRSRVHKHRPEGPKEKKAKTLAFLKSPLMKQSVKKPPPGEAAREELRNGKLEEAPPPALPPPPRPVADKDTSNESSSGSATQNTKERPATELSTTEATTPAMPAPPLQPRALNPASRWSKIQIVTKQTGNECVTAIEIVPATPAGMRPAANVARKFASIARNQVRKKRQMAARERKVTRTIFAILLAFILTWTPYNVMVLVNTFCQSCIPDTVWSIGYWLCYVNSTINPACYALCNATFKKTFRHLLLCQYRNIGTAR
The note with it: inhibition of 3H-NMS binding.

Assay [6] has as its target T3, rat m1 receptor (Rm1). The assay is described as follows: biochemical.
Procedure: as §2
For assay [7], the target named is T2, human m2 receptor (Hm2). The assay is described as follows: biochemical.
Source text: as §1
Assay [8] deals with T4, human m3 receptor (Hm3). Kind of assay: biochemical.
Procedure: as §2
Assay [9] addresses T5, human m4 receptor (Hm4). The assay is described as follows: biochemical.

T4 sequence (P20309 whole entry): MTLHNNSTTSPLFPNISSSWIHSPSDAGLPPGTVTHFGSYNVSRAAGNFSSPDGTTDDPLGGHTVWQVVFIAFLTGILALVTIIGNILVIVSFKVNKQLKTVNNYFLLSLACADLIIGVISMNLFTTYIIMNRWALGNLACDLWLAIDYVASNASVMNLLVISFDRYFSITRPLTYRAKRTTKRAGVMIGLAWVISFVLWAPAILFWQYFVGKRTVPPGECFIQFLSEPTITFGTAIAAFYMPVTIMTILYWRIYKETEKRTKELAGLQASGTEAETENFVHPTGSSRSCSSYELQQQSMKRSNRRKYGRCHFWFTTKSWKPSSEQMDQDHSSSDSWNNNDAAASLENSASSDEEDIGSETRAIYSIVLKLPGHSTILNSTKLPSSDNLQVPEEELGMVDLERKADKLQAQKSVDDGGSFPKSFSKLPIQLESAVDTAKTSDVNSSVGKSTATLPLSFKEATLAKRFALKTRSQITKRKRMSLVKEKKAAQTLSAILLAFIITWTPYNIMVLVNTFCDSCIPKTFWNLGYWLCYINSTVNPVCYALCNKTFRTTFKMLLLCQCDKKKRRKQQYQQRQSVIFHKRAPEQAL

Turning to `C[N+]1(C)C2CC(OC(=O)C(CO)c3ccccc3)CC1C1OC12` (single isomer, unassigned) [^3 H-NMS, N-methylscopolamine], the Bmax in [1] (Hm5 in CHO cell membranes, direct binding of 3H-NMS) worked out at 2236 ± 590 fmol/mg protein; in assay [2] (Hm2 in CHO cell membranes, direct binding of 3H-NMS) it was 121 ± 63 fmol/mg protein.
As to `CCN(CC)CC1CCCCN1CC(=O)N1c2ccccc2C(=O)Nc2cccnc21` (stereo not shown) [AF-DX 116], the IC50 came to 6.8 ± 0.9 µM in [1]; 4.3 ± 1.2 µM in assay [6]; 0.36 ± 0.23 µM in assay [7]; 3.1 ± 0.4 µM in assay [8]; 1.8 ± 0.3 µM in assay [9]. In addition, the inhibitory constant (Ki) in assay [1] (Hm5, inhibition of 3H-NMS binding) stood at 2.8 µM; in assay [3], 1.3 µM; in assay [2] (Hm2, inhibition of 3H-NMS binding), 0.26 µM; in assay [4] it was 0.82 µM; in assay [5] (Hm4) it was 0.45 µM. In addition, the “average Hill number (H)” value in [5] (m4, fit to single mass action binding site with variable Hill number) came to 0.79±0.03.

A word on the IC50: it is the point on the concentration scale where inhibition reaches its midpoint. Low values mean greater potency, high ones weaker potency. In general, Ki refers to the equilibrium dissociation constant of an inhibitor or competing ligand from its target. The low end stands for higher affinity, the high end for lower affinity.
